Assay results published in the supplement of paper PMC10307832.

Key:
Assay in all cases: relative viability (nuclei count vs DMSO), 5 days (fraction); higher = more cells survive
Elesclomol + Alpelisib = compound: CN(NC(=O)CC(=O)NN(C)C(=S)c1ccccc1)C(=S)c1ccccc1 [Elesclomol] + Cc1nc(NC(=O)N2CCC[C@H]2C(N)=O)sc1-c1ccnc(C(C)(C)C(F)(F)F)c1 [Alpelisib] (partner 2 µM)
Method in brief: (§1)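 Lung cancer cell lines in 1536-well plates got either a single drug or a fixed anchor-drug dose together with five library-drug doses (not always all listed) in √10 steps, by pin tool, on the day after seeding. Nuclei were counted after 5 days, and relative viability is the treated-to-vehicle ratio of nuclei counts. Values are medians of duplicate plates.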

Elesclomol + Decitabine = compound: CN(NC(=O)CC(=O)NN(C)C(=S)c1ccccc1)C(=S)c1ccccc1 [Elesclomol] + Nc1ncn([C@H]2C[C@H](O)[C@@H](CO)O2)c(=O)n1 [Decitabine] (partner 2 µM)
Method in brief: as §1

Elesclomol + Foretinib = compound: CN(NC(=O)CC(=O)NN(C)C(=S)c1ccccc1)C(=S)c1ccccc1 [Elesclomol] + COc1cc2c(Oc3ccc(NC(=O)C4(C(=O)Nc5ccc(F)cc5)CC4)cc3F)ccnc2cc1OCCCN1CCOCC1 [Foretinib] (partner 0.25 µM)
Method in brief: as §1

Elesclomol + OSI-027 = compound: CN(NC(=O)CC(=O)NN(C)C(=S)c1ccccc1)C(=S)c1ccccc1 [Elesclomol] + COc1cccc2cc(-c3nc([C@H]4CC[C@H](C(=O)O)CC4)n4ncnc(N)c34)[nH]c12 [OSI-027] (partner 0.5 µM)
Method in brief: as §1

Elesclomol + Luminespib = compound: CN(NC(=O)CC(=O)NN(C)C(=S)c1ccccc1)C(=S)c1ccccc1 [Elesclomol] + CCNC(=O)c1noc(-c2cc(C(C)C)c(O)cc2O)c1-c1ccc(CN2CCOCC2)cc1 [Luminespib] (partner 0.01 µM)
Method in brief: as §1

| Cell Line | relative viability (Elesclomol + Alpelisib; first compound 0.003162 µM) | relative viability (Elesclomol + Alpelisib; first compound 0.01 µM) | relative viability (Elesclomol + Alpelisib; first compound 0.03162 µM) | relative viability (Elesclomol + Alpelisib; first compound 0.1 µM) | relative viability (Elesclomol + Decitabine; first compound 0.003162 µM) | relative viability (Elesclomol + Decitabine; first compound 0.01 µM) | relative viability (Elesclomol + Decitabine; first compound 0.03162 µM) | relative viability (Elesclomol + Decitabine; first compound 0.1 µM) | relative viability (Elesclomol + Foretinib; first compound 0.003162 µM) | relative viability (Elesclomol + Foretinib; first compound 0.01 µM) | relative viability (Elesclomol + Foretinib; first compound 0.03162 µM) | relative viability (Elesclomol + Foretinib; first compound 0.1 µM) | relative viability (Elesclomol + OSI-027; first compound 0.003162 µM) | relative viability (Elesclomol + OSI-027; first compound 0.01 µM) | relative viability (Elesclomol + OSI-027; first compound 0.03162 µM) | relative viability (Elesclomol + OSI-027; first compound 0.1 µM) | relative viability (Elesclomol + Luminespib; first compound 0.003162 µM) | relative viability (Elesclomol + Luminespib; first compound 0.01 µM) | relative viability (Elesclomol + Luminespib; first compound 0.03162 µM) | relative viability (Elesclomol + Luminespib; first compound 0.1 µM) |
| --- | --- | --- | --- | --- | --- | --- | --- | --- | --- | --- | --- | --- | --- | --- | --- | --- | --- | --- | --- | --- |
| NCI-H1944 | 0.887 | 0.736 | 0.881 | 0.825 | 0.441 | 0.498 | 0.401 | 0.253 | 0.93 | 0.868 | 0.838 | 0.358 | 0.454 | 0.306 | 0.389 | 0.299 | 0.73 | 0.682 | 0.654 | 0.371 |
| NCI-H2023 | 0.604 | 0.236 | 0.269 | 0.074 | 0.219 | 0.181 | 0.0903 | 0.0614 | 0.67 | 0.565 | 0.0376 | 0.051 | 0.351 | 0.128 | 0.0471 | 0.0389 | 0.658 | 0.376 | 0.134 | 0.0435 |
| NCI-H1395 | 0.999 | 0.571 | 0.252 | 0.259 | 0.754 | 0.532 | 0.318 | 0.249 | 1.06 | 0.665 | 0.332 | 0.324 | 0.706 | 0.435 | 0.398 | 0.227 | 0.57 | 0.498 | 0.308 | 0.292 |
| NCI-H2087 | 1.2 | 0.701 | 0.526 | 0.566 | 0.379 | 0.226 | 0.175 | 0.082 | 0.936 | 0.767 | 0.577 | 0.299 | 0.422 | 0.283 | 0.357 | 0.225 | 0.158 | 0.189 | 0.139 | 0.0928 |
| NCI-H838 | 1.13 | 0.892 | 0.967 | 0.706 | 0.469 | 0.433 | 0.403 | 0.249 | 1.07 | 0.854 | 0.66 | 0.419 | 0.331 | 0.407 | 0.378 | 0.286 | 0.33 | 0.235 | 0.166 | 0.109 |
| NCI-H1793 | 0.759 | 0.654 | 0.768 | 0.164 | 0.44 | 0.387 | 0.454 | 0.126 | 0.613 | 0.618 | 0.658 | 0.193 | 0.276 | 0.197 | 0.262 | 0.228 | 0.13 | 0.148 | 0.158 | 0.133 |
| LC-2-ad | 0.85 | 0.495 | 0.111 | 0.116 | 0.763 | 0.653 | 0.391 | 0.218 | 0.697 | 0.411 | 0.267 | 0.286 | 0.52 | 0.231 | 0.273 | 0.276 | 0.497 | 0.47 | 0.33 | 0.265 |
| LOU-NH91 | 0.717 | 0.643 | 0.513 | 0.498 | 0.868 | 0.775 | 0.756 | 0.72 | 0.902 | 0.868 | 0.862 | 0.807 | 0.786 | 0.701 | 0.595 | 0.714 | 0.334 | 0.339 | 0.33 | 0.28 |
| NCI-H1734 | 0.722 | 0.588 | 0.625 | 0.131 | 0.483 | 0.445 | 0.188 | 0.101 | 0.882 | 0.679 | 0.221 | 0.126 | 0.573 | 0.491 | 0.178 | 0.124 | 0.189 | 0.14 | 0.122 | 0.108 |
| NCI-H520 | 0.884 | 0.667 | 0.563 | 0.0734 | 0.526 | 0.411 | 0.313 | 0.143 | 0.757 | 0.771 | 0.251 | 0.111 | 0.23 | 0.293 | 0.224 | 0.14 | 0.238 | 0.188 | 0.193 | 0.164 |
| UMC-11 | 0.949 | 0.931 | 0.488 | 0.363 | 0.674 | 0.582 | 0.276 | 0.359 | 1.01 | 0.91 | 0.789 | 0.482 | 0.482 | 0.428 | 0.396 | 0.336 | 1.04 | 1.02 | 0.604 | 0.413 |
| NCI-H596 | 0.437 | 0.472 | 0.458 | 0.213 | 1.03 | 0.903 | 0.664 | 0.241 | 0.918 | 1.03 | 0.764 | 0.158 | 0.8 | 0.694 | 0.757 | 0.206 | 0.845 | 0.924 | 0.787 | 0.186 |
| NCI-H1755 | 0.931 | 0.9 | 0.909 | 0.24 | 0.704 | 0.808 | 0.689 | 0.598 | 0.935 | 0.887 | 0.922 | 0.474 | 0.756 | 0.457 | 0.66 | 0.419 | 0.418 | 0.257 | 0.452 | 0.284 |
| SK-LU-1 | 0.987 | 0.674 | 0.294 | 0.1 | 0.679 | 0.575 | 0.481 | 0.468 | 0.803 | 0.668 | 0.459 | 0.193 | 0.319 | 0.271 | 0.211 | 0.0858 | 0.206 | 0.193 | 0.158 | 0.124 |
